Assay results: paper PMC4092041 (Journal of cardiovascular pharmacology, 2014)
Values belong to the compound of their own block, whether it stands above or below them.

What was measured:
[1] = Stability of EpFAs at 37°C, neutral pH; format: physicochemical
[2] = tested on: P450 metabolites of the ARA cascade / sEH; experiment: Oxylipin profiling: P450 and sEH metabolites; conditions: for Increase in plasma levels of the infused EpFA vs Ang II infused animals: subcutaneous infusion, corresponding groups
COX pathway = conditions: kidney; P < 0.05
sEH = conditions: cited from earlier work
LOX pathway = experiment: Oxylipin profiling: LOX metabolites; format: in vivo, mice; conditions: kidney; TPPU 0.2 mg/kg
[3] = tested on: angiotensin-II dependent hypertension; experiment: Systolic blood pressure; format: in vivo, mice; conditions: overall mixed effects analysis, all days; TPPU alone 0.2 mg/kg in drinking water; P < 0.05
[4] = tested on: angiotensin-II dependent hypertension; conditions: TPPU 0.2 and 0.6 mg/kg; cited from earlier work
Body weight gain = format: in vivo; conditions: Ang II infused mice
[5] = cited from earlier work

- Stability [1]: quite stable
- Increase in plasma levels of the infused EpFA vs Ang II infused animals ([2]; P < 0.05): approximately 2 fold
SMILES: CCCCCC1OC1C/C=C\C/C=C\C/C=C\CCCC(=O)O (stereo not shown) [14, 15-EET, epoxyeicosatrienoic acid]

SMILES: CCC1OC1C/C=C\C/C=C\C/C=C\C/C=C\C/C=C\CCC(=O)O (stereo not shown) [19, 20-EDP, epoxydocosapentaenoic acid]
- Tissue levels of PGE2 vs Ang II infusion alone (COX pathway): significantly decreased by half
- Stability [1]: quite stable
- Rate of metabolism by sEH compared to most other fatty acid epoxides tested (sEH): more slowly metabolized
- Tissue levels of 19, 20-EDP relative to tissue levels of 14, 15-EET ([2]; animals receiving these EpFAs): 6 times
- Renal levels of 14, 15-EET vs Ang II infused animals ([2]; kidney, TPPU 0.2 mg/kg): significantly decreased
- Increase in plasma levels of the infused EpFA vs Ang II infused animals ([2]; P < 0.05): approximately 2 fold

SMILES: CCC(=O)N1CCC(NC(=O)Nc2ccc(OC(F)(F)F)cc2)CC1 [TPPU]
- Renal PGD2 vs Ang II infusion and 19, 20-EDP alone (COX pathway): decreased
- Tissue levels of 15(S)-HETrE vs 19, 20-EDP treatment alone (LOX pathway): increased
- Tissue levels of 15-HETE vs 19, 20-EDP treatment alone (LOX pathway): increased
- SBP (percent change from baseline) vs Ang II infused controls [3]: statistically lower SBP
- Blood pressure in Ang II hypertension [4]: lower blood pressure to near baseline levels
- Body weight gain (Body weight gain): did not alter body weight gain
- Increase in renal DiHOMEs vs 19, 20-EDP alone or Ang II infusion ([2]; TPPU 0.2 mg/kg, P < 0.05): approximately 3 fold
- Renal levels of 19, 20-EDP vs Ang II alone or 19, 20-EDP treated animals ([2]; kidney, TPPU 0.2 mg/kg): significantly increased
- Summed plasma concentration of DiHDPEs vs 19, 20-EDP treatment alone ([2]; plasma, TPPU 0.2 mg/kg): decreased significantly

SMILES: CCCCc1nc(Cl)c(CO)n1Cc1ccc(-c2ccccc2-c2nn[nH]n2)cc1 [losartan]
- Adverse effect on monovalent cation balance [5]: hyperkalemia
- BP in normotensive animals [5]: reduced BP
